Source: patent US5236912A, “Antiandrogenic [3,2-c]pyrazole and [3,2-d]triazole steroids” (Schering Aktiengesellschaft, priority 1990, dated 1993)
“And” between values parts separate entries of the source, which are not always exact repeats. Identical values can stand only once.

Columns and labels:
[1] = tested on: orchiectomized, testosterone propionate-substituted rats; settings: compound described in EP 0 207 375 A1; cited from earlier work
testosterone levels [2] = experiment: peripheral selectivity / counter regulation: testosterone levels in rats after administration of the compound; format: in vivo; settings: for Counter Regulation: testosterone levels 24 hours after 10 mg s.c., lack of counter regulation = peripheral selectivity
Description: In order to test peripheral selectively, the testosterone levels are measured in rats 24 hours after administration of 10 mg s.c. of the compound: lack of counter regulation is evaluated as peripheral selectively.

[3] = tested on: orchiectomized, testosterone propionate-substituted rats; experiment: classical antiandrogen test on orchiectomized, testosterone propionate-substituted rats (inhibition of prostate weight); format: in vivo; settings: 3 mg s.c.; for Antiandrogen Test: % Inhibition of Prostate Weight: orchiectomized, testosterone propionate-substituted rats (0.1 mg/animal/day), seven day treatment
Description: These two compounds, the classical antiandrogen test on orchiectomized, testosterone propionate-substituted rats (dose: 0.1 mg/animal/day) show, after a seven day treatment (s.c.) with 3 mg/animal/day) of the antiandrogen, merely about 30% of the antiandrogenic potency of cyproterone acetate (17α-acetoxy-6-chlor-1α,2α-methylene-4,6-pregnadiene-3,20-dione) which constitutes the standard antiandrogen (Friedmund Neumann, Rudolf Wiechert, "Die Geschichte von Cyproteronacetat, Ungewoehnliche Wege bei der Entwicklung eines Arzneimittels" [The History of Cyproterone Acetate, the Development of a Medicine Along Unusual Routes], MPS Medizinisch-Pharmazeutische Studiengesellschaft e.V. [Association for Medical-Pharmaceutical Studies] Mainz, Mainz (1984).

testosterone levels [4] = settings: in words, background statement; cited from earlier work

For `CC1=C2CCC3C(CCC4(C)C3CCC4(C)O)C2(C)Cc2cn(S(C)(=O)=O)nc21` (stereo not drawn) [E, 4,17α-dimethyl-1'-mesyl-1'H-androst-4-eno[3,2-c]pyrazol-17β-ol], the “antiandrogen activity compared with cyproterone acetate” value [1] is listed as “comparable to cyproterone acetate”, the “testosterone level in the serum” value (testosterone levels [2]; central effect (counter regulation by feedback)) is listed as “raises the testosterone level in the serum” and the peripheral selectivity (testosterone levels [2]; lack of counter regulation is evaluated as peripheral selectivity) is listed as “no peripheral selectivity”. For the same compound, the “Counter Regulation” value (testosterone levels [2]) was “Yes” and the “Antiandrogen Test: % Inhibition of Prostate Weight” value [3] was 88%.
For `CC1CC2=Cc3nn(S(C)(=O)=O)cc3CC2(C)C2CCC3(C)C(CCC3(C)O)C12` (stereo not drawn) [C, 7α,17α-dimethyl-1'-mesyl-1'H-androst-4-eno[3,2-c]pyrazol-17β-ol], the “Counter Regulation” value (testosterone levels [2]) was “No” and the “Antiandrogen Test: % Inhibition of Prostate Weight” value [3] was 53%.
With `CC12Cc3cn(S(C)(=O)=O)nc3C=C1C1(CC1)CC1C2CCC2(C)C1CCC2(C)O` (stereo not drawn) [B, 6,6-ethylene-1'-mesyl-17α-methyl-1'H-androst-4-eno[3,2-c]pyrazol-17β-ol] the “Counter Regulation” value (testosterone levels [2]) was “No” and the “Antiandrogen Test: % Inhibition of Prostate Weight” value [3] was 73%.
For `CC12Cc3cn(S(C)(=O)=O)nc3C=C1CCC1C2CCC2(C)C1C=CC2(C)O` (stereo not drawn) [A, 1'-mesyl-17α-methyl-1'H-androsta-4,15-dieno[3,2-c]pyrazol-17β-ol], the “Counter Regulation” value (testosterone levels [2]) was “No” and the “Antiandrogen Test: % Inhibition of Prostate Weight” value [3] was 80%.
For `CC(=O)O[C@]1(C(C)=O)CC[C@H]2[C@@H]3C=C(Cl)C4=CC(=O)[C@@H]5C[C@@H]5[C@]4(C)[C@H]3CC[C@@]21C` [Cyproterone Acetate, 17α-acetoxy-6-chlor-1α,2α-methylene-4,6-pregnadiene-3,20-dione], the “effect on the hypothalamus-hypophysis system” value (testosterone levels [4]) is given as “affecting, as does the latter compound, the hypothalamus-hypophysis system” and the “Antiandrogen Test: % Inhibition of Prostate Weight, comparison Cyproterone Acetate (value in parentheses)” value ([3]; cyproterone acetate comparison value) is given as 97% and 86% and 87% and 95% and 100%.
With `CC12Cc3nn(S(C)(=O)=O)nc3C=C1CCC1C2CCC2(C)C1C=CC2(C)O` (stereo not drawn) [D, 2'-mesyl-17α-methyl-2'H-triazolo[4',5':2,3]androsta-4,15-dien-17β-ol] the “Counter Regulation” value (testosterone levels [2]) was “No” and the “Antiandrogen Test: % Inhibition of Prostate Weight” value [3] was 97%.
